IC50 and Kd data for 18 compounds are collected here from ChEMBL document CHEMBL4619815, “Hitting a Moving Target: Simulation and Crystallography Study of ATAD2 Bromodomain Blockers” (ACS Med Chem Lett, 2020).

In assay [1] the target is T1, ATPase family AAA domain-containing protein 2 (Homo sapiens, UniProt Q6PL18).
T1 sequence (Q6PL18 whole entry): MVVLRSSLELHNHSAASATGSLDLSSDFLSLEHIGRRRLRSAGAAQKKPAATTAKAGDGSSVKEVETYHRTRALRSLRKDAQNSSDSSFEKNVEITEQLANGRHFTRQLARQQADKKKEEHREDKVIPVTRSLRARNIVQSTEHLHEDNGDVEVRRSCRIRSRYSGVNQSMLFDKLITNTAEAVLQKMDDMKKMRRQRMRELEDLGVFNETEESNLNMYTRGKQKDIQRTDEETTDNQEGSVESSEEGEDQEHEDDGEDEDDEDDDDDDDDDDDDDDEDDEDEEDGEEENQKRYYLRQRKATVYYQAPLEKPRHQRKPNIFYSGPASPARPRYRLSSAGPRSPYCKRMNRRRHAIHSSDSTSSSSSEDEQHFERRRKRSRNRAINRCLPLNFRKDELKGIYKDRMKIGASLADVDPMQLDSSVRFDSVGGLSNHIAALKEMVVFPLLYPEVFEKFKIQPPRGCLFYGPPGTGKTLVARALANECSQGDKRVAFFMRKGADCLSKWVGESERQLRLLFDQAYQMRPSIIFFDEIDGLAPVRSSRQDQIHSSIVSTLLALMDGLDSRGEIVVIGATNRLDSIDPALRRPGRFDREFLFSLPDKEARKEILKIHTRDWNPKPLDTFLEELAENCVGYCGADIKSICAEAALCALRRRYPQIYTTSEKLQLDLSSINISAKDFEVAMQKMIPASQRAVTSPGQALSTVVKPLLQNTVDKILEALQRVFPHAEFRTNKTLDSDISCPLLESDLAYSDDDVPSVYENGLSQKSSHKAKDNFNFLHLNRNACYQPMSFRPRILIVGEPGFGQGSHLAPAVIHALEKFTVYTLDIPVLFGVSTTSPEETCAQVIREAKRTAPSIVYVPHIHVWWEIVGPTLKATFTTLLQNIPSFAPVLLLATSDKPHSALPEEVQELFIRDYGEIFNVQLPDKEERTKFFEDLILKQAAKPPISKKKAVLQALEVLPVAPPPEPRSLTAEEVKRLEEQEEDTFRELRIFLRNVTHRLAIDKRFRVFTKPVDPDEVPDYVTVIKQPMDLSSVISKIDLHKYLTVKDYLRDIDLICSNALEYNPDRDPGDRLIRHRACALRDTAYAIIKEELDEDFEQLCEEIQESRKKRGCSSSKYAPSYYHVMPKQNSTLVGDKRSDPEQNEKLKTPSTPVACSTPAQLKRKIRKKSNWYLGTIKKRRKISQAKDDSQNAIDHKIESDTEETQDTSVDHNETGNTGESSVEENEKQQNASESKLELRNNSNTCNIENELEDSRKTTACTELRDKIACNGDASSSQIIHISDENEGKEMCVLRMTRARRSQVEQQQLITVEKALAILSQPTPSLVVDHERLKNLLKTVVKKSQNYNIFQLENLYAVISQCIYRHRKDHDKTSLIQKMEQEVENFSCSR
Kind of assay: Inhibition of recombinant human N-terminal GST-tagged ATAD2 bromodomain (981 to 1146 residues) expressed in Escherichia coli using biotinylated peptide SGRGK(Ac)GGKGLGKGGAKRHRKVLRDNGSGS as substrate incubated for 3 hrs by TR-FRET assay. (TR-FRET usually uses a lanthanide donor and a delayed reading to cut background.)

Assay [2] addresses T1, ATPase family AAA domain-containing protein 2. In words: Binding affinity to recombinant human N-terminal GST-tagged ATAD2 bromodomain (981 to 1146 residues) expressed in Escherichia coli at 10 degree C by isothermal titration calorimetry. A general note: In ITC the heat of successive injections is recorded.

Bounds are passed on as bounds.

One may read the IC50 as the concentration that gives 50% inhibition. As for `CC(=O)c1csc(NC(=O)[C@@H](C)NC(=N)N)n1`, the IC50 in assay [1] turned out to be 140 µM.
On the same count and under the same terms, under `CC(=O)c1nc(NC(=O)[C@@H](C)NC(=N)N)sc1-c1cncc(N)c1` stands above 150 µM.
On the same count and under the same terms, under `CC(=O)c1nc(NC(=O)C(C)(C)N)sc1-c1cncc(N)c1` stands above 150 µM.
Still for that read-out and setting: under `CC(=O)c1nc(NC(=O)[C@@H](C)N)sc1-c1cncc(N)c1` stands above 150 µM; under `CC(=O)c1nc(NC(=O)[C@@H](C)N)sc1-c1cccnc1`, 95 µM; under `CC(=O)c1csc(NC(=O)C(C)(C)N)n1`, above 150 µM.
In the case of `CC(=O)c1nc(NC(=O)[C@H]2CNCCN2CCC2CCC(F)(F)CC2)sc1-c1cncc(N)c1`, the IC50 in assay [1] was above 150 µM.
On the same count and under the same terms, under `CC(=O)c1nc(NC(=O)C2(N)CCC2)sc1-c1cncc(N)c1` stands 80 µM.
The Kd is a measure of binding affinity in units of concentration. Turning to `CC(=O)c1csc(NC(=O)[C@H]2CNCCN2CCC2CCC(F)(F)CC2)n1`, the Kd in assay [2] is 25 µM. Moreover, in assay [1], the IC50 worked out at 15 µM.
Turning to `CC(=O)c1nc(NC(=O)[C@H]2CNCCN2)sc1-c1ccc(N2CCCC2=O)cc1`, the IC50 in assay [1] is above 150 µM.
On the same count and under the same terms, for `CC(=O)c1nc(NC(=O)[C@H]2CNCCN2)sc1-c1cncc(N)c1` the value was above 150 µM.
As to `CC(=O)c1nc(NC(=O)[C@H]2CNCCN2)sc1-c1ccc(C(=O)N2CCOCC2)cc1`, in assay [1], the IC50 is above 150 µM.
Still for that read-out and setting: for `CC(=O)c1nc(NC(=O)[C@@H](C)N)sc1-c1cccc(O)c1` the value was above 150 µM.
Still for that read-out and setting: for `CC(=O)c1nc(NC(=O)[C@@H](C)N)sc1-c1cccc(N)c1` the value was above 150 µM.
In the case of `CC(=O)c1csc(NC(=O)[C@H]2CNCCN2)n1`, the IC50 in assay [1] was above 150 µM.
Still for that read-out and setting: under `C[C@@H](N)C(=O)Nc1nc2c(s1)CCCC2=O` stands above 150 µM; under `COc1cccc(-c2sc(NC(=O)[C@@H](C)N)nc2C(C)=O)c1`, above 150 µM; under `CC(=O)c1csc(NC(=O)[C@@H](C)N)n1`, 336 µM.
